Target: T1, PARP15 (Homo sapiens, UniProt Q460N3)
T1 sequence (Q460N3 1-678): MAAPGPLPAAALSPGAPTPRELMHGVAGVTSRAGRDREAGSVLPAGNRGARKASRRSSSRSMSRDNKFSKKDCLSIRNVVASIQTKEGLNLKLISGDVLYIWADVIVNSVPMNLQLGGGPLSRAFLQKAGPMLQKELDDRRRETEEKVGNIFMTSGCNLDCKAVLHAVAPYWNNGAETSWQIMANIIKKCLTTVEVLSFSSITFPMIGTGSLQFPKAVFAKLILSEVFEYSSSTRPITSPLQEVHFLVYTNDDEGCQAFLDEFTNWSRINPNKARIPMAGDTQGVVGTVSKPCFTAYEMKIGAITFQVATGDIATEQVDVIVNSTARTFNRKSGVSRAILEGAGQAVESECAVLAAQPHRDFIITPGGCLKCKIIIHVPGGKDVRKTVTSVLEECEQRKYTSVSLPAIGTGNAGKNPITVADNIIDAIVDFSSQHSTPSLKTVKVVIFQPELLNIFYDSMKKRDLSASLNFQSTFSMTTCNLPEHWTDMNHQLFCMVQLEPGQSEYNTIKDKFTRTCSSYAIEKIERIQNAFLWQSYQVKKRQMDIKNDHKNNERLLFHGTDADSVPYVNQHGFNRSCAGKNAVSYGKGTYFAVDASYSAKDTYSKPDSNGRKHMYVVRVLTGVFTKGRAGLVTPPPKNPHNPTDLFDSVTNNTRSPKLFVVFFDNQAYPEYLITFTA
Experiment: biochemical

For `Nc1nnc2sc3cc(O)ccc3n12` [Compound 109, 3-Amino[1,2,4]triazolo[3,4-b][1,3]benzothiazol-7-ol], the IC50 was 680 nM.

From patent US20250177359A1, “COMPOUNDS FOR USE IN THE TREATMENT OF CANCER AND INFLAMMATORY CONDITIONS” (priority 2022, published 2025)
